From patent publication US9585957B2, “Adenosine receptor agonists and antagonists to modulate T cell responses” (THE JOHNS HOPKINS UNIVERSITY, priority 2007, dated 2017)

Legend:
[1] = system: 6.5+ T cells in C3HA mice; experiment: Ex vivo tolerance studies: in vitro rechallenge of T cells harvested from vehicle- or CGS-treated C3HA mice
Protocol: 1.2×10^6 clonotypic 6.5^+ T cells were adoptive transferred into C3HA recipient mice as described above. On the second or third day (as noted) after transfer the splenocytes and lymphocytes were harvested and pooled. 2×10^5 of the pooled cells were incubated in 96-well round bottom plates with varying concentrations of HA class II peptide for 24 hours. A portion of the supernatant were withdrawn and later assayed for IL-2 and IFN-γ productions by ELISA. The wells were then pulsed with [^3H]thymidine for 16 hours and proliferation determined by tritium incorporation, as described above. All samples were performed in triplicate.

A.E7 T cells = experiment: Anergy induction in A.E7 T cells: incubation with APCs, PCC and CGS, then rechallenge without CGS; format: cell-based
Protocol: A.E7 is a clonotypic CD4^+, Th1 T cell clone specific for pigeon cytochrome c (PCC) and is maintained as previously described (Powell et al. J Immunol. 1999; 162:2775-2784).
Studies were conducted to determine the effects of A2a receptor stimulation on T cell function. A.E7 is a clonotypic CD4′, Th1 T cell clone specific for pigeon cytochrome c (PCC) and is maintained as previously described (Powell, J. D., Lerner, C. G. & Schwartz, R. H. Inhibition of cell cycle progression by rapamycin induces T cell clonal anergy even in the presence of costimulation. J Immunol 162, 2775-84 (1999)). A.E7s were rendered anergic with anti-CD3 or by incubation with APC, PCC and […] CGS-21680. For antibody induced anergy, 6-well plates were previously coated with anti-CD3 three hours prior to stimulation and washed with PBS. For mock stimulations, the well was not coated with anti-CD3. A.E7s were incubated in the coated well overnight at 37° C., then harvested and washed extensively and rested (24 hours for CAMP measurement, 4-6 days for proliferation and cytokine production). […] A.E7s were then isolated via a ficoll gradient, washed extensively, and immediately rechallenged for proliferation and cytokine production. To assess proliferation to PCC, T cells were extensively washed and 5×10^6 cells were added to 50×10^4 irradiated BIO.A splenocytes and increasing doses of PCC in triplicate in a 96-well flat-bottomed plate. After 48 hours, cells were pulsed with [^3H] thymidine and harvested 16 hrs later. Tritium incorporation was determined by a Packard Matrix 96 direct beta counter (Packard bioscience). For cytokine production, a 96-well round-bottom plate was preincubated with […] anti-CD3 for 3 hours. […] All conditions were done in triplicate and were cultured overnight. Supernatant was collected and assessed for cytokine levels (eBioscience for IL-2, IFN-y, TNF-a; R&D Systems for GM-CSF) as per manufacturers' instructions. For each sample, multiple dilutions of the supernatant were assayed and concentration was determined based upon the dilution that best fit the most linear aspect of the standard curve. For CD25 measurements, the cells used for cytokine production were stained with anti-CD25, harvested and measured by flow cytometry.
Next, the T cells were isolated and rechallenged with APCs and peptide in the absence of CGS (secondary stimulation).

[2] = system: ERK phosphorylation, jun B, AP-1; experiment: Western blot for phospho-ERK and jun B, and EMSA for AP-1, after T cell stimulation with or without CGS; format: cell-based, mice
Protocol: For phospho-ERK and total ERK Western blots, splenocytes from 6.5^+ mice were stimulated overnight with 10 ug/mL HA class II peptide then harvested and enriched for CD4^+ T cells. CD4^+ purified T cells were then stimulated in 500 uL with soluble anti-CD3 (10 ug/mL) and soluble anti-CD28 (1:20 dilution).
Nuclear extracts from CD4^+ purified 6.5^+ T cells that were prepared. The AP-1 probe was: 5′-CGCTTGATGACTCAGCCGGAA-3′. The NFkB probe was: 5′-AGTTGAGGGGACTTTCCCAGGC-3′.

## CCNC(=O)[C@H]1O[C@@H](n2cnc3c(N)nc(NCCc4ccc(CCC(=O)O)cc4)nc32)[C@H](O)[C@@H]1O [CGS, 2-p-(2-carboxyethyl)phenethyl-amino-5-N-ethyl-carboxamidoadenosine]
[1]; CGS-treated versus vehicle-treated mice, no CGS during rechallenge
  proliferation and cytokine production of harvested cells, two days after adoptive transfer: equal proliferation and cytokine production
[1]; T cells from CGS-treated versus vehicle-treated mice, no CGS during rechallenge (FIG. 4b)
  proliferation following in vitro stimulation, Day 3: significant reduction in proliferation
[1]; T cells from CGS-treated versus vehicle-treated mice, no CGS during rechallenge (FIG. 4c)
  IFN-γ production following in vitro stimulation, Day 3: significant reduction
A.E7 T cells; 1 μM CGS during mock induction, no peptide present, rechallenge without CGS (FIG. 2a)
  response upon rechallenge after mock induction: no effect
A.E7 T cells; 1 μM CGS with peptide during initial stimulation, rechallenge without CGS (FIG. 2b)
  proliferation upon rechallenge: reduced proliferation
A.E7 T cells; 1 μM CGS with peptide during initial stimulation, rechallenge without CGS (FIG. 2c)
  IFN-γ production upon rechallenge: reduced
A.E7 T cells; peptide, exogenous IL-2 and 1 μM CGS during induction (FIGS. 2d and e)
  induction of anergy in the presence of exogenous IL-2: the presence of IL-2 prevented the ability of CGS to induce anergy
[2]; Signal 1+2, 1 μM CGS (FIG. 3d)
  ERK phosphorylation: inhibited ERK phosphorylation
[2]; T cell stimulation, 1 μM CGS (FIG. 3e)
  jun B expression in the nucleus: reduced jun B expression
[2]; T cell stimulation, 1 μM CGS (FIG. 3f)
  AP-1 binding (EMSA): lowered AP-1 binding
